Experiments:
Type in all cases: in vivo, C57BL/6 mice
[1] = test system: DSS-induced UC model mice; assay: Anti-ulcerative colitis activity, DSS mouse colitis model; set-up: key to DAI score: DAI = (weight loss + stool + occult blood scores)/3; details: for MPO activity in colon tissue / Colon length: 10 days
Description: Except for the normal group, the other mice were free to drink 2.5% DSS for 7 days, which was then replaced to distilled water to be drunk freely for 3 days to establish the UC model. […] The mice in the normal group and model groups were administered intragastrically the same volume of the solvent 0.5% CMC-Na.
The general living conditions of the mice in each group were observed and the disease activity indexs (DAI) were evaluated. The daily specific observation indicator was weight, stool property and occult blood state of mice, and then the scores of the weight loss, stool property and occult blood state were added to determine the average value, so as to obtain the DAI score of each mouse, that is, DAI=(weight loss score+stool property score+occult blood state score)/3, to evaluate the disease activity.
Test method of occult blood: Using o-toluidine method, a little feces was picked up into a 24-well culture plate with a cotton swab, into which was first added 200 μL of the solution of o-toluidine glacial acetic acid, and then quickly added 200 μL of 3% hydrogen peroxide solution. Those turned blue-brown within 2 minutes were positive.
1 h after the last administration, blood was collected from the venous plexus of fundus oculi, stood at room temperature for 2 h, and centrifuged at 3000 rpm for 20 min. The serum was aspirated, aliquoted, and frozen at −70° C. for subsequent use. After the blood collection, the mice were sacrificed by cervical dislocation, and the abdominal cavity was opened. The colon tissues were removed 1 cm away from the anus, rinsed twice with pre-cooled PBS, and frozen at −70° C. for subsequent use.
The shortening of colon length is one of the main characteristics of DSS-induced UC model mice. After dissecting the abdominal cavity of the UC mice, the colon and distal ileum tissues were dissociated. The external morphological changes of the colon tissues were observed, the colon length was measured and recorded, and the photos were taken.
40 mg of colon tissues of the mice in each group was taken, into which was added 400 μL of pre-cooled normal saline to prepare tissue homogenates. After centrifugation at 4° C. and 1200 rpm for 5 min, the supernatants were collected. According to the method described in the kit instructions, various reagents were added sequentially, and finally the absorbance value of each well was determined at the wavelength of 460 nm of the microplate reader to calculate the MPO activity.
MPO activity (U/g wet weight)=(OD value of test tube−OD value of control tube)/11.3×sampling amount(g)

[2] = test system: mouse acute liver injury model; assay: Mouse acute liver injury model (CCl4); details: for Acta2 mRNA expression / Col1a1 mRNA expression / Tgfb1 mRNA expression: liver; for ALT / AST: serum, 3 days
Description: The mice were randomly divided into 8 groups, one of which was randomly selected as the normal group, and the other 7 groups were the model group, the parent drug 1 (0.4 and 4 μmol/kg), the hydrochloride 22 (4 μmol/kg), and the fumarate 23 (0.4 and 4 μmol/kg) groups, respectively, with 6 mice in each group. In addition to the normal group injected with 10 mL olive oil/kg, the other mice were injected intraperitoneally with 0.5 mL CCl4+9.5 mL olive oil/kg weight, i.e., the ratio of CCl4 to olive oil was 1:19. […] The mice in the normal group and model group were administered intragastrically the same volume of the solvent 0.5% CMC-Na.
1 h after the last administration, blood was collected from the venous plexus of fundus oculi, stood at room temperature for 2 h, and centrifuged at 3000 rpm for 20 min. The serum was aspirated, aliquoted, and frozen at −70° C. for subsequent use. After blood collection, the mice were sacrificed by cervical dislocation, and the abdominal cavity was opened. The livers were taken out, and rinsed twice with pre-cooled PBS. The liver left lobe tissues of the mice were cut, and fixed with 4% paraformaldehyde for 24-48 h. The remaining tissues were frozen at −70° C. for subsequent use.
μL of each sample was taken for experiments. The levels of AST and ALT in the serum of mice were detected according to the operation manual. The absorbance value was detected at the wavelength of 510 nm by a microplate reader, and the sample concentration (U/L) was calculated according to the standard curve.
The extraction method of total RNA from tissues, cDNA synthesis and the PCR amplification method are the same as those in Example 4.

[3] = test system: CT26 cells; assay: CT26 subcutaneous mouse xenograft model; details: 3 weeks
Description: CT26 cells were cultured and amplified in vitro. Appropriate amount of the cells in logarithmic growth phase were resuspended in a suspension of a serum-free RPMI 1640 medium and Matrigel (1:1) to prepare a cell suspension in 5×10^5/100 μL under sterile conditions. 100 μL of the cell suspension was subcutaneously inoculated into the armpits of the front left limbs of male C57BL/6 mice with a syringe. When the tumor volume grew to 50-70 mm^3, animals with moderate tumor size were randomly divided into groups, with 5 animals in each group. […] The mice were administered intragastrically every day for 3 weeks. During the administration, the weights and tumor diameters of the mice were measured every day. After the experiment, the mice were sacrificed by cervical dislocation, and the tumors were taken and weighed. The formula for calculating a tumor volume (TV) is: TV=½×a×b2, where a represents the long diameter of a tumor; b represents the short diameter of a tumor.

| Compound | MPO activity in colon tissue ([1]; 20 nmol/kg i.g.) | Colon length ([1]; 20 nmol/kg/d i.g.) | MPO activity in colon tissue ([1]; 40 nmol/kg i.g.) | Colon length ([1]; 40 nmol/kg/d i.g.) | DAI score ([1]; day 1, 20 nmol/kg i.g.) | DAI score ([1]; day 1, 40 nmol/kg i.g.) | DAI score ([1]; day 2, 20 nmol/kg i.g.) | DAI score ([1]; day 3, 20 nmol/kg i.g.) | DAI score ([1]; day 4, 20 nmol/kg i.g.) | DAI score ([1]; day 5, 20 nmol/kg i.g.) | DAI score ([1]; day 6, 20 nmol/kg i.g.) | DAI score ([1]; day 7, 20 nmol/kg i.g.) | DAI score ([1]; day 8, 20 nmol/kg i.g.) | DAI score ([1]; day 9, 20 nmol/kg i.g.) | DAI score ([1]; day 10, 20 nmol/kg i.g.) | Acta2 mRNA expression ([2]; 4 μmol/kg) | Col1a1 mRNA expression ([2]; 4 μmol/kg) | Tgfb1 mRNA expression ([2]; 4 μmol/kg) | ALT ([2]; 4 μmol/kg i.g.) | AST ([2]; 4 μmol/kg i.g.) | other results |
| --- | --- | --- | --- | --- | --- | --- | --- | --- | --- | --- | --- | --- | --- | --- | --- | --- | --- | --- | --- | --- | --- |
| C=C1C(=O)O[C@@H]2[C@@H]3[C@]4(CC[C@@]3(C)O)C[C@]4(C)CC[C@@H]12 [Compound 1] | 1.40 ± 0.31 U/g tissue | 6.15 ± 0.35 cm | 1.08 ± 0.12 U/g tissue | 6.78 ± 0.28 cm | 0.00 ± 0.00 | 0.00 ± 0.00 | 0.33 ± 0.14 | 0.75 ± 0.28 | 1.08 ± 0.37 | 1.75 ± 0.50 | 2.25 ± 0.44 | 2.50 ± 0.17 | 2.75 ± 0.39 | 1.83 ± 0.17 | 1.25 ± 0.16 | 2.41 | 1.42 | 1.12 | 105.14 U/L | 239.08 U/L | DAI score ([1]; day 2, 40 nmol/kg i.g.): 0.33 ± 0.19; DAI score ([1]; day 3, 40 nmol/kg i.g.): 0.58 ± 0.21; DAI score ([1]; day 4, 40 nmol/kg i.g.): 1.00 ± 0.19; DAI score ([1]; day 5, 40 nmol/kg i.g.): 1.25 ± 0.34; DAI score ([1]; day 6, 40 nmol/kg i.g.): 1.67 ± 0.36; DAI score ([1]; day 7, 40 nmol/kg i.g.): 1.83 ± 0.44; DAI score ([1]; day 8, 40 nmol/kg i.g.): 1.92 ± 0.50; DAI score ([1]; day 9, 40 nmol/kg i.g.): 1.17 ± 0.32; DAI score ([1]; day 10, 40 nmol/kg i.g.): 0.50 ± 0.22; Acta2 mRNA expression ([2]; 0.4 μmol/kg): 3.78; Col1a1 mRNA expression ([2]; 0.4 μmol/kg): 2.33; Tgfb1 mRNA expression ([2]; 0.4 μmol/kg): 1.43; ALT ([2]; 0.4 μmol/kg i.g.): 174.83 U/L; AST ([2]; 0.4 μmol/kg i.g.): 425.20 U/L |
| CN(C)C[C@@H]1C(=O)O[C@H]2[C@H]1CC[C@@]1(C)C[C@]13CC[C@@](C)(O)[C@H]23 [Compound 22] |  |  |  |  |  |  |  |  |  |  |  |  |  |  |  | 1.85 | 1.16 | 0.92 | 85.02 U/L | 153.34 U/L |  |
| C=C1C(=O)O[C@@H]2[C@H]3C(C)=CC[C@@]34O[C@@]4(C)CC[C@@H]12 [arglabin, reference compound] | 0.95 ± 0.18 U/g tissue | 6.50 ± 0.15 cm |  |  | 0.00 ± 0.00 |  | 0.36 ± 0.20 | 0.65 ± 0.20 | 1.17 ± 0.19 | 1.39 ± 0.13 | 1.62 ± 0.10 | 2.07 ± 0.17 | 2.32 ± 0.10 | 1.45 ± 0.13 | 0.92 ± 0.06 |  |  |  |  |  | Tumor growth inhibition ([3]; 20 mg/kg/d i.g.): 34.94%; Tumor weight ([3]; 20 mg/kg/d i.g.): 5.31 g |
| CN(C)C[C@@H]1C(=O)O[C@H]2[C@H]1CC[C@@]1(C)C[C@]13CC[C@@](C)(O)[C@H]23 [Compound 23] | 1.29 ± 0.11 U/g tissue | 6.51 ± 0.25 cm | 0.99 ± 0.18 U/g tissue | 7.26 ± 0.26 cm | 0.00 ± 0.00 | 0.00 ± 0.00 | 0.27 ± 0.09 | 0.63 ± 0.14 | 0.96 ± 0.16 | 1.02 ± 0.23 | 1.56 ± 0.41 | 2.28 ± 0.23 | 2.46 ± 0.26 | 1.31 ± 0.18 | 0.80 ± 0.16 | 2.15 | 1.33 | 0.97 | 99.46 U/L | 216.14 U/L | DAI score ([1]; day 2, 40 nmol/kg i.g.): 0.16 ± 0.10; DAI score ([1]; day 3, 40 nmol/kg i.g.): 0.54 ± 0.11; DAI score ([1]; day 4, 40 nmol/kg i.g.): 1.20 ± 0.14; DAI score ([1]; day 5, 40 nmol/kg i.g.): 0.61 ± 0.23; DAI score ([1]; day 6, 40 nmol/kg i.g.): 1.07 ± 0.25; DAI score ([1]; day 7, 40 nmol/kg i.g.): 1.38 ± 0.25; DAI score ([1]; day 8, 40 nmol/kg i.g.): 1.57 ± 0.28; DAI score ([1]; day 9, 40 nmol/kg i.g.): 1.05 ± 0.25; DAI score ([1]; day 10, 40 nmol/kg i.g.): 0.35 ± 0.16; Tumor growth inhibition ([3]; 16.86 mg/kg/d i.g.): 43.36%; Tumor weight ([3]; 16.86 mg/kg/d i.g.): 4.62 g; Acta2 mRNA expression ([2]; 0.4 μmol/kg): 2.97; Col1a1 mRNA expression ([2]; 0.4 μmol/kg): 1.83; Tgfb1 mRNA expression ([2]; 0.4 μmol/kg): 1.08; ALT ([2]; 0.4 μmol/kg i.g.): 134.21 U/L; AST ([2]; 0.4 μmol/kg i.g.): 387.71 U/L |
